The source of these data is ChEMBL document CHEMBL1128617, “4-Deoxy-4-aminoavermectins with potent broad spectrum antiparasitic activities” (1995).

What all share (assay type): functional
Test [1] concerns Artemia. The experiment in a line: In vitro antiparasitic activity in brine shrimp assay.
Test [2] concerns Oesophagostomum columbianum. The test is described as follows: Antiparasitic activity against Oesophagostomum columbianum at dose of 0.05 mg/kg in sheep anthelmintic test.
For test [3], the system named is Trichostrongylus colubriformis. The test is described as follows: Antiparasitic activity against Trichostrongylus colubriformis at dose of 0.05 mg/kg in sheep anthelmintic test.
Test [4] concerns Teladorsagia circumcincta. The experiment in a line: Antiparasitic activity against Ostertagia circumcincta at dose of 0.05 mg/kg in sheep anthelmintic test.
For test [5], the system named is Cooperia. The experiment in a line: Antiparasitic activity against Cooperia […] at dose of 0.05 mg/kg in sheep anthelmintic test.
The test system of test [6] is Haemonchus contortus. The experiment in a line: Antiparasitic activity against Haemonchus contortus at dose of 0.05 mg/kg in sheep anthelmintic test.
The test system of test [7] is Trichostrongylus axei. The experiment in a line: Antiparasitic activity against Trichostrongylus axei at dose of 0.05 mg/kg in sheep anthelmintic test.
Test [8] deals with Cooperia oncophora. The test is described as follows: Antiparasitic activity against Cooperia oncophora at dose of 0.05 mg/kg in sheep anthelmintic test.
The subject of test [9] is Haemonchus contortus. The test is described as follows: Antiparasitic activity against Haemonchus contortus at dose of 0.10 mg/kg in sheep anthelmintic test. The conditions noted are these: dose 0.1 mg/kg.
The test system of test [10] is Trichostrongylus axei. The test is described as follows: Antiparasitic activity against Trichostrongylus axei at dose of 0.10 mg/kg in sheep anthelmintic test. The conditions noted are these: dose 0.1 mg/kg.
Test [11] concerns Cooperia. The test is described as follows: Antiparasitic activity against Cooperia […] at dose of 0.10 mg/kg in sheep anthelmintic test. Conditions: dose 0.1 mg/kg.
Test [12] relates to Oesophagostomum columbianum. The test is described as follows: Antiparasitic activity against Oesophagostomum columbianum at dose of 0.10 mg/kg in sheep anthelmintic test. Conditions: dose 0.1 mg/kg.
For test [13], the system named is Trichostrongylus colubriformis. The test is described as follows: Antiparasitic activity against Trichostrongylus colubriformis at dose of 0.10 mg/kg in sheep anthelmintic test. Conditions: dose 0.1 mg/kg.
Test [14] deals with Teladorsagia circumcincta. The experiment in a line: Antiparasitic activity against Ostertagia circumcincta at dose of 0.10 mg/kg in sheep anthelmintic test. The conditions noted are these: dose 0.1 mg/kg.

`CCC(C)[C@H]1O[C@]2(C=C[C@@H]1C)C[C@@H]1C[C@@H](C/C=C(\C)[C@@H](O[C@H]3C[C@H](OC)[C@@H](O[C@H]4C[C@H](OC)[C@H](NC(C)=O)[C@H](C)O4)[C@H](C)O3)[C@@H](C)/C=C/C=C3\CO[C@@H]4[C@H](O)C(C)=C[C@@H](C(=O)O1)[C@]34O)O2` (stereo not given in full) registered an IC100 in [1] of 540 ng/mL. Besides, the Reduction in test [2], in [3], in [4], in test [5], in test [6] and in test [7] was greater than 95% each time.

`CCC(C)[C@H]1O[C@]2(C=C[C@@H]1C)C[C@@H]1C[C@@H](C/C=C(\C)[C@@H](O[C@H]3C[C@H](OC)[C@@H](O[C@H]4C[C@@H](OC)[C@@H](NC(C)=O)[C@H](C)O4)[C@H](C)O3)[C@@H](C)/C=C/C=C3\CO[C@@H]4[C@H](O)C(C)=C[C@@H](C(=O)O1)[C@]34O)O2` (stereo not given in full) yielded an IC100 in test [1] of 430 ng/mL. Besides, the Reduction in test [2] is on record as greater than 95%; in [3], greater than 95%; in test [4] it was greater than 95%; in test [5], less than 50%; in [8] it was 76%; in test [6] it was greater than 95%. In [7], the Reduction is given as greater than 95%.

For the compound `CCC(C)[C@H]1O[C@]2(C=C[C@@H]1C)C[C@@H]1C[C@@H](C/C=C(\C)[C@@H](O[C@H]3C[C@H](OC)[C@@H](O[C@H]4C[C@H](OC)[C@H](NS(C)(=O)=O)[C@H](C)O4)[C@H](C)O3)[C@@H](C)/C=C/C=C3\CO[C@@H]4[C@H](O)C(C)=C[C@@H](C(=O)O1)[C@]34O)O2` (stereo not given in full), the IC100 in [1] was 430 ng/mL. The Reduction in [2], in test [3], in test [4], in test [5], in test [8] and in test [6] was greater than 95% throughout. For the same compound, the Reduction in [7] is given as greater than 95%.

For the compound `CCC(C)[C@H]1O[C@]2(C=C[C@@H]1C)C[C@@H]1C[C@@H](C/C=C(\C)[C@@H](O[C@H]3C[C@H](OC)[C@@H](O[C@H]4C[C@H](OC)[C@H](NC=O)[C@H](C)O4)[C@H](C)O3)[C@@H](C)/C=C/C=C3\CO[C@@H]4[C@H](O)C(C)=C[C@@H](C(=O)O1)[C@]34O)O2` (stereo not given in full), in test [1], the IC100 came out at 380 ng/mL. The Reduction in test [2], in test [3], in test [4], in [5], in test [8] and in [6] was greater than 95% throughout. The compound also had a Reduction in test [7] greater than 95%.

For `CCC(C)[C@H]1O[C@]2(C=C[C@@H]1C)C[C@@H]1C[C@@H](C/C=C(\C)[C@@H](O[C@H]3C[C@H](OC)[C@@H](O[C@H]4C[C@H](OC)[C@@H](NC(C)=O)[C@H](C)O4)[C@H](C)O3)[C@@H](C)/C=C/C=C3\CO[C@@H]4[C@H](O)C(C)=C[C@@H](C(=O)O1)[C@]34O)O2` (stereo not given in full), in test [1], the IC100 is 325 ng/mL. Also, the Reduction in [2] is reported as greater than 95%; in test [3], less than 50%; in test [4] it was less than 50%; in test [5], 76%; in test [8], greater than 95%; in test [6] it was greater than 95%. This compound also registered a Reduction in test [7] greater than 95%.

For `CCC(C)[C@H]1O[C@]2(C=C[C@@H]1C)C[C@@H]1C[C@@H](C/C=C(\C)[C@@H](O[C@H]3C[C@H](OC)[C@@H](O[C@H]4C[C@H](OC)[C@H](NC)[C@H](C)O4)[C@H](C)O3)[C@@H](C)/C=C/C=C3\CO[C@@H]4[C@H](O)C(C)=C[C@@H](C(=O)O1)[C@]34O)O2` (stereo not given in full), the Reduction in test [9] is greater than 95%; in test [10], greater than 95%; in [11], greater than 95%; in [12], greater than 95%; in test [13], 76%; in [14] it was greater than 95%. For the same compound, the IC100 in [1] was 1730 ng/mL.

Regarding `CCC(C)[C@H]1O[C@]2(C=C[C@@H]1C)C[C@@H]1C[C@@H](C/C=C(\C)[C@@H](O[C@H]3C[C@H](OC)[C@H](NC(C)=O)[C@H](C)O3)[C@@H](C)/C=C/C=C3\CO[C@@H]4[C@H](O)C(C)=C[C@@H](C(=O)O1)[C@]34O)O2` (stereo not given in full), the Reduction is on record as less than 50% in [9]; greater than 95% in test [10]; less than 50% in [11]; 76% in [12]; greater than 95% in test [13]; greater than 95% in test [14]. In addition, in test [1], the IC100 was found to be 1300 ng/mL.

With `CCC(C)[C@H]1O[C@]2(C=C[C@@H]1C)C[C@@H]1C[C@@H](C/C=C(\C)[C@@H](O[C@H]3C[C@H](OC)[C@@H](O[C@H]4C[C@H](OC)[C@H](N(C)C(C)=O)[C@H](C)O4)[C@H](C)O3)[C@@H](C)/C=C/C=C3\CO[C@@H]4[C@H](O)C(C)=C[C@@H](C(=O)O1)[C@]34O)O2` (stereo not given in full), the IC100 in [1] came out at 650 ng/mL. For the same compound, the Reduction in test [2], in test [3], in [4], in test [5], in [8] and in test [6] was greater than 95% throughout. This compound gave a Reduction in test [7] greater than 95%.

Take `CCC(C)[C@H]1O[C@]2(C=C[C@@H]1C)C[C@@H]1C[C@@H](C/C=C(\C)[C@@H](O[C@H]3C[C@H](OC)[C@@H](O[C@H]4C[C@H](OC)[C@@H](O)[C@H](C)O4)[C@H](C)O3)[C@@H](C)/C=C/C=C3\CO[C@@H]4[C@H](O)C(C)=C[C@@H](C(=O)O1)[C@]34O)O2` (stereo not given in full) [AVERMECTIN]: the Reduction in test [9], in test [10], in [11], in test [12], in [13] and in test [14] was greater than 95% throughout. In [1], the IC100 was 296 ng/mL.

The compound `CCC(C)[C@H]1O[C@]2(C=C[C@@H]1C)C[C@@H]1C[C@@H](C/C=C(\C)[C@@H](O[C@H]3C[C@H](OC)[C@@H](O[C@H]4C[C@H](OC)[C@H](NC(=O)c5ccccc5)[C@H](C)O4)[C@H](C)O3)[C@@H](C)/C=C/C=C3\CO[C@@H]4[C@H](O)C(C)=C[C@@H](C(=O)O1)[C@]34O)O2` (stereo not given in full) returned an IC100 in test [1] of 28000 ng/mL. Moreover, the Reduction is on record as greater than 95% in test [2]; less than 50% in [3]; 76% in test [4]; greater than 95% in test [5]; greater than 95% in test [8]; 76% in [6]. Further, the Reduction in [7] is reported as less than 50%.

Turning to `CCC(C)[C@H]1O[C@]2(C=C[C@@H]1C)C[C@@H]1C[C@@H](C/C=C(\C)[C@@H](O[C@H]3C[C@H](OC)[C@@H](O[C@H]4C[C@H](OC)[C@H](NC(=O)C(F)(F)F)[C@H](C)O4)[C@H](C)O3)[C@@H](C)/C=C/C=C3\CO[C@@H]4[C@H](O)C(C)=C[C@@H](C(=O)O1)[C@]34O)O2` (stereo not given in full), the Reduction in test [9] was greater than 95%; in test [10], greater than 95%; in [11], greater than 95%; in test [12] it was greater than 95%; in [13] it was greater than 95%; in test [14], less than 50%. For the same compound, the IC100 in test [1] is 27800 ng/mL.

In the case of `CCC(C)[C@H]1O[C@]2(C=C[C@@H]1C)C[C@@H]1C[C@@H](C/C=C(\C)[C@@H](O[C@H]3C[C@H](OC)[C@@H](O[C@H]4C[C@H](OC)[C@H](NC(=O)NC)[C@H](C)O4)[C@H](C)O3)[C@@H](C)/C=C/C=C3\CO[C@@H]4[C@H](O)C(C)=C[C@@H](C(=O)O1)[C@]34O)O2` (stereo not given in full), the Reduction in [9] is recorded as greater than 95%; in test [10] it was greater than 95%; in test [11] it was greater than 95%; in test [12], greater than 95%; in test [13] it was 76%; in test [14] it was 51%. For the same compound, in test [1], the IC100 was determined as 430 ng/mL.

Turning to `CCC(=O)N[C@@H]1[C@H](C)O[C@@H](O[C@H]2[C@H](C)O[C@@H](O[C@@H]3/C(C)=C/C[C@@H]4C[C@@H](C[C@]5(C=C[C@H](C)[C@@H](C(C)CC)O5)O4)OC(=O)[C@@H]4C=C(C)[C@@H](O)[C@H]5OC/C(=C\C=C\[C@@H]3C)[C@]54O)C[C@@H]2OC)C[C@@H]1OC` (stereo not given in full), the IC100 in test [1] was determined as 430 ng/mL. For the same compound, the Reduction in test [2], in [3], in test [4], in [5], in test [8] and in [6] was greater than 95% throughout. In test [7], this compound displayed a Reduction greater than 95%.

`CCCCCCCCN[C@@H]1[C@H](C)O[C@@H](O[C@H]2[C@H](C)O[C@@H](O[C@@H]3/C(C)=C/C[C@@H]4C[C@@H](C[C@]5(C=C[C@H](C)[C@@H](C(C)CC)O5)O4)OC(=O)[C@@H]4C=C(C)[C@@H](O)[C@H]5OC/C(=C\C=C\[C@@H]3C)[C@]54O)C[C@@H]2OC)C[C@@H]1OC` (stereo not given in full): the Reduction in [9], in test [10], in test [11], in test [12], in test [13] and in test [14] was less than 50% throughout. This compound displayed an IC100 in [1] greater than 55500 ng/mL.
